Assay results taken from patent publication US6288265A, “Phloroglucidic acid and derivatives as antibacterial agents” (National Science Council, priority 1999, dated 2001).
≈ marks a conversion by molar mass, not a printed value. Entries after “also recorded” stand apart in the source; their conditions may differ. Where two headings read alike, the source gives them in different places.

Legend:
[1] = system: β-lactamases of S. aureus 95 and Ps. aeruginosa 18S-H; assay: Behaviour towards β-lactamases (statements in words); type: biochemical
Excerpt: (§1) Determination of Minimum Protective Concentrations. The β-lactamase inhibitory properties of cephalosporin-phloroglucide esters VIII and IX as well as 7-(phloroglucidamido)cephalosporins X and XI were studied. Cephalosporins XV and XVI as well as clavulanic acid (XVII) were used in vitro as the reference compound. The average values of duplicate determinations and the ability of compounds to inhibit the hydrolysis of 3-[E-(2,4-dinitro)styryl]-(6R,7R)-7-(2-thienylacetamido)-3-cephem-4-carboxylic acid by β-lactamases from S. aureus 95 and Ps. aeruginosa 18S-H. Minimum protective concentrations (MPC) values were determined by the procedure of O'Callaghan ct al. [O'Callaghan C. H. ct al. Antimicrob. Agents Chemother. 1972, 1, 283] and are the lowest concentrations of β-lactams needed to protect the indicator from hydrolysis by β-lactamases under standard test conditions within 40 min. The hydrolysis of indicator was evidenced by the appearance of a distinct red color.

[2] = system: S. aureus FDA 209P; assay: Minimum inhibitory concentration, agar dilution, S. aureus FDA 209P; type: cell-based, Staphylococcus aureus FDA 209P; details: for MIC: Staphylococcus aureus, FDA209P, agar dilution, average of duplicate determinations
Procedure: (§2) Determination of Minimum Inhibitory Concentrations. The screening experiments in vitro were carried out for antibacterial activities of the phloroglucide analogs II-VII, XII-XIV, bifunctional cephalosporins VIII and IX, as well as 7-(phloroglucidamido)cephalosporins X and XI. Cephalosporins XV and XVI were used as the reference compounds. The lowest concentrations of antibiotics needed for prevention of visible growth of microorganisms; reported as the average values of duplicate determinations. Minimum inhibitory concentrations (MIC) values obtained by use of an agar dilution method whereby organisms were deposited onto medicated agar plates by the replication device of Steers et al [Steers, F. et al. Antibiot. Chemother. 1959, 9, 307].

[3] = system: β-lactamase of PS. aeruginosa 18S-H; assay: Minimum protective concentration against β-lactamase of Ps. aeruginosa 18S-H; type: biochemical; details: protection of chromogenic cephem indicator from hydrolysis within 40 min, average of duplicates
Excerpt: as §1

[4] = system: S. aureus 95; assay: Minimum inhibitory concentration, agar dilution, S. aureus 95; type: cell-based, Staphylococcus aureus 95; details: for activity against β-lactamase producing microorganisms, in words: i.e., S. aureus 95
Procedure: as §2

[5] = molecular target: T1, β-lactamase of S. aureus 95 (Staphylococcus aureus, UniProt P00807); assay: Minimum protective concentration against β-lactamase of S. aureus 95; type: biochemical; details: protection of chromogenic cephem indicator from hydrolysis within 40 min, average of duplicates
T1 construct: chromogenic cephalosporin (nitrocefin type) hydrolysis
T1 sequence (P00807 25-281): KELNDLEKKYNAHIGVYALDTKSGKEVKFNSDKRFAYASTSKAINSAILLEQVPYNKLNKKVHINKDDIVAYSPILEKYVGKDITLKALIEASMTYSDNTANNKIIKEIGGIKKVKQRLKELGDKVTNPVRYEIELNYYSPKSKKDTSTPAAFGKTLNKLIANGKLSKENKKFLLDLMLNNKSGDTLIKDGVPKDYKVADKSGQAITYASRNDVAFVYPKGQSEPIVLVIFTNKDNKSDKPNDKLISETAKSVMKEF
Excerpt: as §1

[6] = system: PS. aerureus 18S-H; assay: Minimum inhibitory concentration, agar dilution, Ps. 18S-H; type: cell-based, Pseudomonas aeruginosa 18S-H; details: Pseudomonas aeruginosa, 18SH, read-out: Minimum Inhibitory Concentration (MIC), PS. aerureus 18S-H
Procedure: as §2

[7] = system: Ps. aerureus 1101-75; assay: Minimum inhibitory concentration, agar dilution, Ps. 1101-75; type: cell-based, Pseudomonas aeruginosa
Procedure: as §2

[8] = system: C. albicans; assay: Minimum inhibitory concentration, agar dilution, C. albicans; type: cell-based; details: Candida albicans, read-out: Minimum Inhibitory Concentration (MIC), C. albicans
Procedure: as §2

[9] = system: pathogenic microorganisms; assay: Antibacterial activity in vitro (statements in words); type: cell-based
Procedure: as §2

[10] = Staphylococcus aureus, 95, agar dilution, average of duplicates, β-lactamase-producing, methicillin resistant organism, read-out: Minimum Inhibitory Concentration (MIC), S. aureus 95
[11] = Pseudomonas aeruginosa, 110175, agar dilution, average of duplicate determinations, read-out: Minimum Inhibitory Concentration (MIC), Ps. aerureus 1101-75
[12] = agar dilution, average of duplicate determinations

## CC(=O)OCC1=C(C(=O)O)N2C(=O)[C@@H](NC(=O)c3cccc(Cc4cc(Cl)cc(Cc5ccccc5O)c4O)c3O)[C@H]2SC1 [X, 7-{3-[5-Chloro-2-hydroxy-3-(2-hydroxybenzyl)benzyl]-2-hydroxy-benzamido}cephalosporanic Acid]
[1]
  hydrolysis by / stability towards β-lactamases, in words: stability towards β-lactamases
  β-lactamase inhibitory property, in words: did not exhibit notable β-lactamase inhibitory property
[2]
  MIC: 0.35 µg/mL (≈ 0.548 µM)
[3]
  Minimum Protective Concentration (MPC), β-lactamase of PS. aeruginosa 18S-H: 99.78 µg/mL
[4]; [10]
  MIC: 0.28 µg/mL (≈ 0.438 µM)
[5]
  Minimum Protective Concentration (MPC), β-lactamase of S. aureus 95: 95.20 µg/mL
[6]
  MIC: 0.45 µg/mL (≈ 0.704 µM)
[7]; [11]
  MIC: 0.28 µg/mL (≈ 0.438 µM)
[8]; [12]
  MIC: 28.3 µg/mL (≈ 44.3 µM)
[9]
  antibacterial activity in words: notable antibacterial activity; also recorded: potent phloroglucide-like antibacterial activity

## COC(=O)c1cccc(C(=O)c2cc(Cl)cc(C(=O)c3ccccc3O)c2O)c1O [V]
[2]
  MIC: 14.7 µg/mL (≈ 34.4 µM)
[4]; [10]
  MIC: 15.3 µg/mL (≈ 35.9 µM)
[6]
  MIC: 4.3 µg/mL (≈ 10.1 µM)
[7]; [11]
  MIC: 5.78 µg/mL (≈ 13.5 µM)
[8]; [12]
  MIC: 125 µg/mL (≈ 294 µM)
[9]
  antibacterial activity in words: lower efficacy than phloroglucides (II) and (III) as well as the bifunctional cephalosporins (VIII) and (IX)

## CC(=O)OCC1=C(C(=O)O)N2C(=O)[C@@H](NC(=O)c3cccc(C(=O)c4cc(Cl)cc(C(=O)c5ccccc5O)c4O)c3O)[C@H]2SC1 [XI, 7-{3-[5-Chloro-2-hydroxy-3-(2-hydroxybenzoyl)benzoyl]-2-hydroxy-benzamido}cephalosporanic Acid]
[1]
  hydrolysis by / stability towards β-lactamases, in words: stability towards β-lactamases
  β-lactamase inhibitory property, in words: did not exhibit notable β-lactamase inhibitory property
[2]
  MIC: 0.78 µg/mL (≈ 1.17 µM)
[3]
  Minimum Protective Concentration (MPC), β-lactamase of PS. aeruginosa 18S-H: 93.45 µg/mL
[4]; [10]
  MIC: 0.45 µg/mL (≈ 0.675 µM)
[5]
  Minimum Protective Concentration (MPC), β-lactamase of S. aureus 95: 88.68 µg/mL
[6]
  MIC: 0.38 µg/mL (≈ 0.57 µM)
[7]; [11]
  MIC: 0.79 µg/mL (≈ 1.18 µM)
[8]; [12]
  MIC: 14.2 µg/mL (≈ 21.3 µM)
[9]
  antibacterial activity in words: notable antibacterial activity

## O=C(O)c1cccc(C(=O)c2cc(Cl)cc(C(=O)c3ccccc3O)c2O)c1O [III, 2-(3-Carboxy-2-hydroxybenzoyl)-6-(2-hydroxybenzoyl)-4-chlorophenol]
[2]
  MIC: 3.67 µg/mL (≈ 8.89 µM)
[4]; [10]
  MIC: 0.98 µg/mL (≈ 2.37 µM)
[6]
  MIC: 0.26 µg/mL (≈ 0.63 µM)
[7]; [11]
  MIC: 0.17 µg/mL (≈ 0.412 µM)
[8]; [12]
  MIC: 3.7 µg/mL (≈ 8.96 µM)
[9]
  antibacterial activity in words: its antimicrobial property decreased; also recorded: In comparison with dicarboxylic acid derivative (XV), mono-carboxylic acid (III) however exhibited greater potency; also recorded: lower efficacy than phenolic acid (II) and phenol (XII) against pathogenic microorganisms

## O=C(O)c1cccc(Cc2cc(Cl)cc(Cc3cccc(C(=O)O)c3O)c2O)c1O [XIII, reference compound]
[2]
  MIC: 3.25 µg/mL (≈ 7.58 µM)
[4]; [10]
  MIC: 4.15 µg/mL (≈ 9.68 µM)
[6]
  MIC: 1.32 µg/mL (≈ 3.08 µM)
[7]; [11]
  MIC: 0.86 µg/mL (≈ 2.01 µM)
[8]; [12]
  MIC: 16.5 µg/mL (≈ 38.5 µM)

## CO/N=C(\C(=O)N[C@@H]1C(=O)N2C(C(=O)O)=C(COC(C)=O)CS[C@H]12)c1csc(N)n1 [XVI, reference compound]
[1]
  hydrolysis by / stability towards β-lactamases, in words: susceptible to hydrolysis by β-lactamases
[2]
  MIC: 1.7 µg/mL (≈ 3.73 µM)
[3]
  Minimum Protective Concentration (MPC), β-lactamase of PS. aeruginosa 18S-H: 1.03 µg/mL
[4]; [10]
  MIC: 40.6 µg/mL (≈ 89.1 µM)
[4]
  activity against β-lactamase producing microorganisms, in words: did not show significant activity
[5]
  Minimum Protective Concentration (MPC), β-lactamase of S. aureus 95: 2.72 µg/mL
[6]
  MIC: 135 µg/mL (≈ 296 µM)
[7]; [11]
  MIC: 69.9 µg/mL (≈ 153 µM)
[8]; [12]
  MIC: > 145 µg/mL

## CC(=O)OCC1=C(C(=O)O)N2C(=O)[C@@H](NC(=O)COc3ccccc3)[C@H]2SC1 [XV, reference compound]
[1]
  hydrolysis by / stability towards β-lactamases, in words: susceptible to hydrolysis by β-lactamases
[2]
  MIC: 0.7 µg/mL (≈ 1.72 µM)
[3]
  Minimum Protective Concentration (MPC), β-lactamase of PS. aeruginosa 18S-H: 0.97 µg/mL
[4]; Staphylococcus aureus, 95, read-out: Minimum Inhibitory Concentration (MIC), S. aureus 95
  MIC: > 145 µg/mL
[4]
  activity against β-lactamase producing microorganisms, in words: did not show significant activity
[5]
  Minimum Protective Concentration (MPC), β-lactamase of S. aureus 95: 1.35 µg/mL
[6]
  MIC: > 145 µg/mL
[7]; Pseudomonas aeruginosa, 110175, read-out: Minimum Inhibitory Concentration (MIC), Ps. aerureus 1101-75
  MIC: > 145 µg/mL
[8]
  MIC: > 145 µg/mL

## O=C(COc1ccccc1)N[C@@H]1C(=O)N2C(C(=O)O)=C(COC(=O)c3cccc(C(=O)c4cc(Cl)cc(C(=O)c5ccccc5O)c4O)c3O)CS[C@H]12 [IX, 3-{3-[5-Chloro-2-hydroxy-3-(2-hydroxybenzoyl)benzoyl]-2-hydroxy-benzoyloxymethyl}-7-phenoxyacetamido-3-cephem-4-carboxylic Acid]
[1]
  hydrolysis by / stability towards β-lactamases, in words: underwent hydrolysis to liberate their phloroglucidc components
[2]
  MIC: 0.9 µg/mL (≈ 1.19 µM)
[2]; compared with corresponding phloroglucides
  antibacterial activity in words, S. aureus FDA 209P: greater antibacterial activity than the corresponding phloroglucides (II) and (III) against S. aureus FDA 209P
[3]
  Minimum Protective Concentration (MPC), β-lactamase of PS. aeruginosa 18S-H: 5.98 µg/mL
[4]; [10]
  MIC: 2.1 µg/mL (≈ 2.77 µM)
[5]
  Minimum Protective Concentration (MPC), β-lactamase of S. aureus 95: 4.81 µg/mL
[6]
  MIC: 3.13 µg/mL (≈ 4.12 µM)
[7]; [11]
  MIC: 1.37 µg/mL (≈ 1.8 µM)
[8]; [12]
  MIC: 6.47 µg/mL (≈ 8.52 µM)

## O=C(O)c1cccc(Cc2cc(Cl)cc(Cc3ccccc3O)c2O)c1O [II, 2-(3-Carboxy-2-hydroxybenzyl)-6-(2-hydroxybenzyl)-4-chlorophenol]
[2]
  MIC: 0.86 µg/mL (≈ 2.23 µM)
[4]; [10]
  MIC: 0.43 µg/mL (≈ 1.12 µM)
[6]
  MIC: 0.1 µg/mL (≈ 0.26 µM)
[7]; [11]
  MIC: 0.02 µg/mL (≈ 0.052 µM)
[8]; [12]
  MIC: 1.43 µg/mL (≈ 3.72 µM)
[9]
  antibacterial activity in words: more potent antimicrobial activity than that of the model phloroglucide (XXI)

## CNC(=O)c1cccc(C(=O)c2cc(Cl)cc(C(=O)c3ccccc3O)c2O)c1O [VII]
[2]
  MIC: 18.1 µg/mL (≈ 42.6 µM)
[4]; [10]
  MIC: 17.8 µg/mL (≈ 41.7 µM)
[6]
  MIC: 8.32 µg/mL (≈ 19.5 µM)
[7]; [11]
  MIC: 6.03 µg/mL (≈ 14.2 µM)
[8]; [12]
  MIC: 120 µg/mL (≈ 281 µM)
[9]
  antibacterial activity in words: lower efficacy than phloroglucides (II) and (III) as well as the bifunctional cephalosporins (VIII) and (IX)

## CNC(=O)c1cccc(Cc2cc(Cl)cc(Cc3ccccc3O)c2O)c1O [VI]
[2]
  MIC: 7.35 µg/mL (≈ 18.5 µM)
[4]; [10]
  MIC: 6.63 µg/mL (≈ 16.7 µM)
[6]
  MIC: 4.7 µg/mL (≈ 11.8 µM)
[7]; [11]
  MIC: 3.28 µg/mL (≈ 8.24 µM)
[8]; [12]
  MIC: 114 µg/mL (≈ 287 µM)
[9]
  antibacterial activity in words: lower efficacy than phloroglucides (II) and (III) as well as the bifunctional cephalosporins (VIII) and (IX)

## Oc1ccccc1Cc1cc(Cl)cc(Cc2ccccc2O)c1O [XII, reference compound]
[2]
  MIC: 1.2 µg/mL (≈ 3.52 µM)
[4]; [10]
  MIC: 0.58 µg/mL (≈ 1.7 µM)
[6]
  MIC: 0.18 µg/mL (≈ 0.528 µM)
[7]; [11]
  MIC: 0.07 µg/mL (≈ 0.205 µM)
[8]; [12]
  MIC: 2.06 µg/mL (≈ 6.04 µM)

## COC(=O)c1cccc(Cc2cc(Cl)cc(Cc3ccccc3O)c2O)c1O [IV]
[2]
  MIC: 2.98 µg/mL (≈ 7.47 µM)
[4]; [10]
  MIC: 4.65 µg/mL (≈ 11.7 µM)
[6]
  MIC: 1.56 µg/mL (≈ 3.91 µM)
[7]; [11]
  MIC: 1.25 µg/mL (≈ 3.13 µM)
[8]; [12]
  MIC: 117 µg/mL (≈ 294 µM)
[9]
  antibacterial activity in words: lower efficacy than phloroglucides (II) and (III) as well as the bifunctional cephalosporins (VIII) and (IX)

## O=C(O)c1cccc(C(=O)c2cc(Cl)cc(C(=O)c3cccc(C(=O)O)c3O)c2O)c1O [XIV, reference compound]
[2]
  MIC: 18.2 µg/mL (≈ 40 µM)
[4]; [10]
  MIC: 22.2 µg/mL (≈ 48.6 µM)
[6]
  MIC: 3.06 µg/mL (≈ 6.7 µM)
[7]; [11]
  MIC: 2.54 µg/mL (≈ 5.56 µM)
[8]; [12]
  MIC: 19.1 µg/mL (≈ 41.9 µM)
